Results: article PMC2577155 (The Journal of neuroscience : the official journal of the …, 2008)
Positions count from the first letter of the chain named. Read-outs that look alike come from different tables or passages of the source.

Tests used:
Sprague-Dawley rats [1] = experiment: Catalepsy test; assay type: in vivo, rat; settings: sc, up to 4 h; TBPB 30-100 mg/kg
rM1 Y381A = target: T1, rM1 Y381A (Rattus norvegicus, UniProt P08482, Y381A); settings: ref Sur et al., 2003; cited from earlier work
T1 sequence (P08482 1-460 Y381A): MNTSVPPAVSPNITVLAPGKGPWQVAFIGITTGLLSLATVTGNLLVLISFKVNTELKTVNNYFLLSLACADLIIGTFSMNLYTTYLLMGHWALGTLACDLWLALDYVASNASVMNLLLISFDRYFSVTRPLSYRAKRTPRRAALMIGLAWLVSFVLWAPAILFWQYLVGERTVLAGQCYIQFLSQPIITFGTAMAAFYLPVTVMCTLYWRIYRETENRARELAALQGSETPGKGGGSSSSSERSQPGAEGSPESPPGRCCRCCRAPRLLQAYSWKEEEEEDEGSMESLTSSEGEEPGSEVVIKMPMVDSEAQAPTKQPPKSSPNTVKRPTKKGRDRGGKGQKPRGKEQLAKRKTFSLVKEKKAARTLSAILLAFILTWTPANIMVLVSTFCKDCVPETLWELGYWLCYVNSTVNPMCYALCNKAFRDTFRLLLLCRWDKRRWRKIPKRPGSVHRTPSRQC

Aβ40 = assay type: cell-based; settings: conditioned media, ELISA
D2 receptors = D2 receptors (Homo sapiens, UniProt P14416); experiment: D2 receptor affinity, NIMH Psychoactive Drug Screening Program; assay type: binding; settings: D2, PDSP accession number 3156
Sprague-Dawley rats [2] = experiment: Locomotor activity when administered alone; assay type: in vivo, rat; settings: 30-100 mg/kg sc
rM4 = target: T2, rM4 (Rattus norvegicus, UniProt P08485); experiment: Calcium mobilization assay, CHO-K1 cells expressing rM4-Gqi5; assay type: cell-based; settings: M4, concentrations up to 10μM
T2 sequence (P08485 1-478): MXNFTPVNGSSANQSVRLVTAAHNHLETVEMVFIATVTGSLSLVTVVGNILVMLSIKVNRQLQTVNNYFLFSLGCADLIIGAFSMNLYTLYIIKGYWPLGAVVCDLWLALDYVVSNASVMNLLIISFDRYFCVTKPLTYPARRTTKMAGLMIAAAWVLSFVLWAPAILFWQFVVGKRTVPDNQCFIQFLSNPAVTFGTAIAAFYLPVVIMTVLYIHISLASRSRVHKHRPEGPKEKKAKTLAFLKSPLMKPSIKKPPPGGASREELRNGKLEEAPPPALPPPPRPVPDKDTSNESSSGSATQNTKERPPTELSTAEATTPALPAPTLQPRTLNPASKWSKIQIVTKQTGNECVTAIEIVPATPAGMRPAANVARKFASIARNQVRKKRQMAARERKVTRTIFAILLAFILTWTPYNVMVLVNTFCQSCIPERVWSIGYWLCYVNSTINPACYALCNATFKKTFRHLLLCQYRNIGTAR

hM2 = target: T3, hM2 (Homo sapiens, UniProt P08172); experiment: Calcium mobilization assay, CHO cells expressing hM2-Gqi5; assay type: cell-based; settings: M2, concentrations up to 10μM
T3 sequence (P08172 1-466): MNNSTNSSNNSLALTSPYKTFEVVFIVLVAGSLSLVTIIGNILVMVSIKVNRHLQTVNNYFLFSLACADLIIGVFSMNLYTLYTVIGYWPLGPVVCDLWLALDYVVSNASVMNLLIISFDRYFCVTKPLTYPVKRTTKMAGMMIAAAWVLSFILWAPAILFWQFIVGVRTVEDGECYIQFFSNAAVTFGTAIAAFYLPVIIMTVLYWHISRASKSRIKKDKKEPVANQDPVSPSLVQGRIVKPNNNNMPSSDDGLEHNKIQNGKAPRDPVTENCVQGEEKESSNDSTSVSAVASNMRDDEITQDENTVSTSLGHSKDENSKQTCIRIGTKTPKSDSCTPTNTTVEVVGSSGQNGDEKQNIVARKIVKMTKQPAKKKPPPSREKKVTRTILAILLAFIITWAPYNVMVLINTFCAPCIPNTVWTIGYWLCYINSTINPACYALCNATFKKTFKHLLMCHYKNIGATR

[3] = system: amyloid precursor protein (APP) processing; assay type: cell-based; settings: eight hours
rats = experiment: Modified Irwin neurological test battery; assay type: in vivo, rat; settings: 100 mg/kg
Sprague-Dawley rats [4] = experiment: Amphetamine-induced hyperlocomotion; assay type: in vivo, rat; settings: significant after 10, 30 and 56.6 mg/kg sc; amphetamine 1 mg/kg sc
hM5 = target: T4, hM5 (Homo sapiens, UniProt P08912); experiment: Calcium mobilization assay, CHO cells expressing hM5; assay type: cell-based; settings: M5, concentrations up to 10μM
T4 sequence (P08912 1-532): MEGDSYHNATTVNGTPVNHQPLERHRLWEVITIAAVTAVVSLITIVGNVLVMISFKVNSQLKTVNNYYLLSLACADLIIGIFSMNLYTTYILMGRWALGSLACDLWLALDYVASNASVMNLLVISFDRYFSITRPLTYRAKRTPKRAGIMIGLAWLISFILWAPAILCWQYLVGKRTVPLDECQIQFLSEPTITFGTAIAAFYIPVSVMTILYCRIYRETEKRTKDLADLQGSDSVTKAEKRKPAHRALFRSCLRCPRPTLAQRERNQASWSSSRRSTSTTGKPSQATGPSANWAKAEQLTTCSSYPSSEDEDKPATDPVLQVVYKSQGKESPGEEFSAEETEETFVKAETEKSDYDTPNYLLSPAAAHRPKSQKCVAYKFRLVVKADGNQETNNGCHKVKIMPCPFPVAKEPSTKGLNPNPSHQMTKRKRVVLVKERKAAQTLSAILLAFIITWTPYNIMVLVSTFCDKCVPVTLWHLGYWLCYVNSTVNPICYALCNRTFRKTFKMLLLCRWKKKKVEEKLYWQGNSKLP

rM1 [5] = target: T5, rM1 (Rattus norvegicus, UniProt P08482); settings: atropine 1-10 nM (CCh) or 0.3-3.0 nM (TBPB)
T5 sequence (P08482 1-460): T1 sequence (P08482 1-460 Y381A) with A381Y

rM1 [6] = target: T5, rM1; settings: wt rM1
hM3 = hM3 (Homo sapiens, UniProt P20309); experiment: Calcium mobilization assay, CHO cells expressing hM3; assay type: cell-based; settings: M3, concentrations up to 10μM
[7] = system: Fos-like immunoreactivity; experiment: Fos immunohistochemistry in rat forebrain; assay type: in vivo; settings: 100 mg/kg sc, two hours after treatment
Sprague-Dawley rats [8] = settings: ref Shannon et al., 2000; cited from earlier work

Chain of D2 receptors (P14416 whole entry): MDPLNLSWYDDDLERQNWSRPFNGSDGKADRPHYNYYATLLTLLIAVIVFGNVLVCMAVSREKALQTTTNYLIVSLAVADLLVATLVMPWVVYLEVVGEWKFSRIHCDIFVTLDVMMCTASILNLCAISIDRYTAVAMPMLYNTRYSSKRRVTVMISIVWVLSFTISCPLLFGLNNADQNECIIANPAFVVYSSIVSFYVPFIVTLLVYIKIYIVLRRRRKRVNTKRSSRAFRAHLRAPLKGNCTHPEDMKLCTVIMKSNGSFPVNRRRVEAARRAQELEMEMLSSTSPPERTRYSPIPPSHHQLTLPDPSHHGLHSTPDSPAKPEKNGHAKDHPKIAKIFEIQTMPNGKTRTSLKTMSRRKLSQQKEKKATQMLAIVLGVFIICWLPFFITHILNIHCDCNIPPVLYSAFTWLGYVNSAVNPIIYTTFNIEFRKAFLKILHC
Chain of hM3 (P20309 whole entry): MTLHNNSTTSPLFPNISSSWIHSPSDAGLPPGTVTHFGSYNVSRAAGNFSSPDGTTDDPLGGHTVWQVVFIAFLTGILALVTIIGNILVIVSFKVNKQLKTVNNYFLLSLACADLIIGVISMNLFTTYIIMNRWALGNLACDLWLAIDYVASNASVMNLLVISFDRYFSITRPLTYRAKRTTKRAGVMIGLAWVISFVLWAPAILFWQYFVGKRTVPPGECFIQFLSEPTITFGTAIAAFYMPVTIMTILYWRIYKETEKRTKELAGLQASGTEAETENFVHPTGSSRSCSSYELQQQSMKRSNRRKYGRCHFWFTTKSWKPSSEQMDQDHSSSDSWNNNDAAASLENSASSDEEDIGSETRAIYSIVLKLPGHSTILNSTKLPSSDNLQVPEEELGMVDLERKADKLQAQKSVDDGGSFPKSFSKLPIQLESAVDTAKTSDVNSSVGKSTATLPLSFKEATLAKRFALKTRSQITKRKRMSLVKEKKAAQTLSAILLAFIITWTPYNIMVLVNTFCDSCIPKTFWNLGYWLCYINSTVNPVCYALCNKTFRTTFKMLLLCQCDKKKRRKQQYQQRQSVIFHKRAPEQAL

O=C(CCCN1CCC(O)(c2ccc(Cl)cc2)CC1)c1ccc(F)cc1 [Haloperidol, haloperidol]
catalepsy (Sprague-Dawley rats [1]): dose-and time-related increases in catalepsy

Clc1ccc2c(c1)N=C(N1CCNCC1)c1ccccc1N2 [N-desmethylclozapine]
activation of the M1 (Y381A) mutant (rM1 Y381A): fully activates

Cc1ccccc1CN1CCC(N2CCC(n3c(=O)[nH]c4ccccc43)CC2)CC1 [TBPB]
Aβ40 levels, % of the vehicle control (Aβ40): 61% | Ki (D2 receptors): 1400 nM | effect on general locomotor output when administered alone (Sprague-Dawley rats [2]): no effect | agonist activity (rM4): no agonist activity | agonist activity (hM2): no agonist activity | increase in shedding of APPsα compared to vehicle-treated cells ([3]; 1 μM): 58% | production of CTFα ([3]; cell lysates): increased | core body temperature (rats): slight decrease | effect on amphetamine-induced hyperlocomotion (Sprague-Dawley rats [4]): robust, dose-related inhibition | agonist activity (hM5): no agonist activity | interaction of the agonist with the orthosteric antagonist atropine (rM1 [5]): noncompetitive | catalepsy (Sprague-Dawley rats [1]): did not induce catalepsy | response as % of the maximal response to CCh (rM1 [6]): 77.3±3.4% | agonist activity (hM3): no agonist activity | number of Fos-like immunoreactive neurons ([7]; DStr lateral): 2.3 ± 1.3 per mm^2 | number of Fos-like immunoreactive neurons ([7]; DStr medial): 4.2 ± 1.2 per mm^2 | number of Fos-like immunoreactive neurons ([7]; NAS shell): 72.2 ± 12.6 per mm^2 | number of Fos-like immunoreactive neurons ([7]; PFC): 326.3 ± 57.1 per mm^2

CN1CCN(C2=Nc3cc(Cl)ccc3Nc3ccccc32)CC1 [clozapine]
catalepsy (Sprague-Dawley rats [1]): failed to produce catalepsy

CCCCCCOc1nsnc1C1=CCCN(C)C1 [xanomeline]
catalepsy (Sprague-Dawley rats [8]): lack of catalepsy
